System: HT29 cells
Assay: Inhibition of cell necrosis (CCK8 method), induced programmed necrosis of HT29 cells
Type: cell-based
Conditions: Homo sapiens, HT-29; rescue from necrosis induced by TNF-α 20 ng/mL, AT-406 1 μM, Z-VAD-FMK 20 μM; 16-20 hours; CCK-8, OD 450 nm
Method in brief: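 HT29 cells in McCOY's 5A with 10% FBS were pre-treated for 30 min with compound (9 fourfold steps, 25000 to 0.38 nM final, 0.25% DMSO). Necrosis was then induced with TNF-α 20 ng/mL, AT-406 1 μM and Z-VAD-FMK 20 μM for 16-20 h. Viability was read by CCK-8 OD450, normalized between uninduced and induced wells, and IC50 was curve-fitted.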

`COc1ccc(C2CC2)cc1-c1ccnc(NC(=O)c2nnc(Cc3ccccc3)[nH]2)c1` [Example 46, 5-benzyl-N-(4-(5-cyclopropyl-2-methoxyphenyl)pyridin-2-yl)-4H-1,2,4-triazole-3-carboxamide] and `COc1ccc(OC)c(-c2ccnc(NC(=O)c3nnc(Cc4ccccc4)[nH]3)c2)c1` [Example 18, 5-benzyl-N-(4-(2,5-dimethoxyphenyl)pyridin-2-yl)-4H-1,2,4-triazole-3-carboxamide] fall in the same range of IC50: 1000 to 10000 nM for the first, 1000 to 10000 nM for the second.

`CCOCCOc1ccc(C(F)(F)F)c(-c2ccnc(NC(=O)c3nnc(Cc4ccccc4F)[nH]3)c2)c1` [Example 284, 5-(2-fluorobenzyl)-N-(4-(5-(2-ethoxyethoxy)-2-(trifluoromethyl)phenyl)pyridin-2-yl)-4H-1,2,4-triazole-3-carboxamide] and `COCCOc1ccc(Cl)c(-c2ccnc(NC(=O)c3nnc(Cc4ccccc4F)[nH]3)c2)c1` [Example 380, 5-(2-fluorobenzyl)-N-(4-(2-chloro-5-(2-methoxyethoxy)phenyl)pyridin-2-yl)-4H-1,2,4-triazole-3-carboxamide] cannot be ordered by IC50: at most 100 nM for the first, at most 100 nM for the second.

`Cc1ccc(OC2CCC2)cc1-c1ccnc(NC(=O)c2nnc(Cc3ccccc3)[nH]2)c1` [Example 156, 5-benzyl-N-(4-(5-cyclobutoxy-2-methylphenyl)pyridin-2-yl)-4H-1,2,4-triazole-3-carboxamide] and `Cc1ccc(OCCC2CC2)cc1-c1ccnc(NC(=O)c2nnc(Cc3ccccc3)[nH]2)c1` [Example 69, 5-benzyl-N-(4-(5-(2-cyclopropylethoxy)-2-methylphenyl)pyridin-2-yl)-4H-1,2,4-triazole-3-carboxamide] cannot be ordered by IC50: 100 to 1000 nM for the first, at most 100 nM for the second.

Compared with `Cc1ccc(OCCN2CCCCC2)cc1-c1ccnc(NC(=O)c2nnc(Cc3cccc(Cl)c3F)[nH]2)c1` [Example 233, 5-(2-fluoro-3-chlorobenzyl)-N-(4-(2-methyl-5-(2-(piperidin-1-yl)ethoxy)phenyl)pyridin-2-yl)-4H-1,2,4-triazole-3-carboxamide], `Cc1ccc(OCCCN2CCCCC2=O)cc1-c1ccnc(NC(=O)c2nnc(Cc3ccccc3)[nH]2)c1` [Example 84] is lower in IC50: 1000 to 10000 nM for the first, at most 100 nM for the second.

`CCC(O)(CC)CCCOc1ccc(Cl)c(-c2ccnc(NC(=O)c3nnc(CC4CCCC4)[nH]3)c2)c1` [Example 361, N-(4-(2-chloro-5-((4-ethyl-4-hydroxyhexyl)oxy)phenyl)pyridin-2-yl)-5-(cyclopentylmethyl)-4H-1,2,4-triazole-3-carboxamide] and `CCC(O)(CC)CCCOc1ccc(F)c(-c2cc(NC(=O)c3nnc(CC4CCCCC4)[nH]3)ncc2Cl)c1` [Example 324, 5-(cyclohexylmethyl)-N-(5-chloro-4-(5-((4-ethyl-4-hydroxyhexyl)oxy)-2-fluorophenyl)pyridin-2-yl)-4H-1,2,4-triazole-3-carboxamide] cannot be ordered by IC50: at most 100 nM for the first, 100 to 1000 nM for the second.

`COc1ccc(C(C)C)cc1-c1ccnc(NC(=O)c2nnc(Cc3ccccc3)[nH]2)c1` [Example 17, 5-benzyl-N-(4-(5-isopropyl-2-methoxyphenyl)pyridin-2-yl)-4H-1,2,4-triazole-3-carboxamide] and `COc1ccc(C)nc1-c1ccnc(NC(=O)c2nnc(Cc3ccccc3)[nH]2)c1` [Example 60, 5-benzyl-N-(3-methoxy-6-methyl-[2,4′-bipyridin]-2′-yl)-4H-1,2,4-triazole-3-carboxamide] cannot be ordered by IC50: over 10000 nM for the first, over 10000 nM for the second.

`Cc1ccc(OCC#N)cc1-c1ccnc(NC(=O)c2nnc(Cc3ccccc3)[nH]2)c1` [Example 120, 5-benzyl-N-(4-(5-(cyanomethoxy)-2-methylphenyl)pyridin-2-yl)-4H-1,2,4-triazole-3-carboxamide] and `Cc1ccc(OCCCCCO)cc1-c1ccnc(NC(=O)c2nnc(Cc3ccccc3)[nH]2)c1` [Example 153, 5-benzyl-N-(4-(5-((5-hydroxylpentyl)oxy)-2-methylphenyl)pyridin-2-yl)-4H-1,2,4-triazole-3-carboxamide] cannot be ordered by IC50: 100 to 1000 nM for the first, at most 100 nM for the second.

`O=C(Nc1cc(-c2cc(OCCCCO)ccc2C(F)(F)F)ccn1)c1nnc(CC2CCCC2)[nH]1` [Example 274, 5-(cyclopentylmethyl)-N-(4-(5-(4-hydroxybutoxy)-2-(trifluoromethyl)phenyl)pyridin-2-yl)-4H-1,2,4-triazole-3-carboxamide] and `Cc1ccc(OCCC2CCOCC2)cc1-c1ccnc(NC(=O)c2nnc(CC3CCCC3)[nH]2)c1` [Example 88, 5-(cyclopentylmethyl)-N-(4-(2-methyl-5-(2-(tetrahydro-2H-pyran-4-yl)ethoxy)phenyl)pyridin-2-yl)-4H-1,2,4-triazole-3-carboxamide] cannot be ordered by IC50: at most 100 nM for the first, at most 100 nM for the second.

`CC(C)(O)CCCOc1ccc(C(F)(F)F)c(-c2ccnc(NC(=O)c3nnc(Cc4cccc(F)c4)[nH]3)c2)c1` [Example 256, 5-(3-fluorobenzyl)-N-(4-(5-((4-hydroxy-4-methylpentyl)oxy)-2-(trifluoromethyl)phenyl)pyridin-2-yl)-4H-1,2,4-triazole-3-carboxamide] and `O=C(Nc1cc(-c2cc(OCCC3CCOCC3)ccc2C(F)(F)F)ccn1)c1nnc(Cc2cccc(F)c2)[nH]1` [Example 307, 5-(3-fluorobenzyl)-N-(4-(5-(2-(tetrahydro-2H-pyran-4-yl)ethoxy)-2-(trifluoromethyl)phenyl)pyridin-2-yl)-4H-1,2,4-triazole-3-carboxamide] cannot be ordered by IC50: at most 100 nM for the first, at most 100 nM for the second.

First: Cc1cnc(NC(=O)c2nnc(Cc3ccccc3F)[nH]2)cc1-c1cc(OCCC2CCOCC2)ccc1F [Example 335, N-(4-(2-fluoro-5-(2-(tetrahydro-2H-pyran-4-yl)ethoxy)phenyl)-5-methylpyridin-2-yl)-5-(2-fluorobenzyl)-4H-1,2,4-triazole-3-carboxamide]
Second: Cc1ccc(OCCCC(C)(C)O)cc1-c1cc(NC(=O)c2nnc(Cc3ccccc3F)[nH]2)ncc1Cl [Example 238, N-(5-chloro-4-(5-((4-hydroxy-4-methylpentyl)oxy)-2-methylphenyl)pyridin-2-yl)-5-(2-fluorobenzyl)-4H-1,2,4-triazole-3-carboxamide]
The IC50 of the first is higher: 1000 to 10000 nM for the first, at most 100 nM for the second. The second is the more potent here.

`CC(C)(O)CCCOc1ccc(Cl)c(-c2cc(NC(=O)c3nnc(CC4CCCCC4)[nH]3)ncc2F)c1` [Example 410, N-(4-(2-chloro-5-((4-hydroxy-4-methylpentyl)oxy)phenyl)-5-fluoropyridin-2-yl)-5-(cyclohexylmethyl)-4H-1,2,4-triazole-3-carboxamide] and `O=C(Nc1cc(-c2cc(OCC3CCOCC3)ccc2Cl)c(F)cn1)c1nnc(CC2CCCCC2)[nH]1` [Example 423, N-(4-(2-chloro-5-((tetrahydro-2H-pyran-4-yl)methoxy)phenyl)-5-fluoropyridin-2-yl)-5-(cyclohexylmethyl)-4H-1,2,4-triazole-3-carboxamide] cannot be ordered by IC50: at most 100 nM for the first, at most 100 nM for the second.

`Cc1ccc(OCCC2CCOCC2)cc1-c1cc(NC(=O)c2nnc(CC3CCCCC3)[nH]2)ncn1` [Example 448, 5-(cyclohexylmethyl)-N-(6-(2-methyl-5-(2-(tetrahydro-2H-pyran-4-yl)ethoxy)phenyl)pyrimidin-4-yl)-4H-1,2,4-triazole-3-carboxamide] and `Cc1ccc(C(=O)NCCC(C)(C)O)cc1-c1ccnc(NC(=O)c2nnc(CC3CCCC3)[nH]2)c1` [Example 488, 5-(cyclopentylmethyl)-N-(4-(5-((3-hydroxyl-3-methylbutyl)carbamoyl)-2-methylphenyl)pyridin-2-yl)-4H-1,2,4-triazole-3-carboxamide] cannot be ordered by IC50: at most 100 nM for the first, at most 100 nM for the second.

`COCCCOc1ccc(Cl)c(-c2ccnc(NC(=O)c3nnc(Cc4ccccc4)[nH]3)c2)c1` [Example 395, 5-benzyl-N-(4-(2-chloro-5-(3-methoxypropoxy)phenyl)pyridin-2-yl)-4H-1,2,4-triazole-3-carboxamide] and `COCCOc1cccc(-c2ccnc(NC(=O)c3nnc(Cc4ccccc4)[nH]3)c2)c1C` [Example 96, 5-benzyl-N-(4-(3-(2-methoxyethoxy)-2-methylphenyl)pyridin-2-yl)-4H-1,2,4-triazole-3-carboxamide] cannot be ordered by IC50: at most 100 nM for the first, 100 to 1000 nM for the second.

`Cc1ccc(OCCCC(C)(C)O)cc1-c1ccnc(NC(=O)c2nnc(Cc3ccc(C#N)cc3)[nH]2)c1` [Example 191, 5-(4-cyanobenzyl)-N-(4-(5-((4-hydroxy-4-methylpentyl)oxy)-2-methylphenyl)pyridin-2-yl)-4H-1,2,4-triazole-3-carboxamide] and `Cc1ccc(OCCCC(C)(C)O)cc1-c1ccnc(NC(=O)c2nnc(Cc3c(F)ccc(F)c3F)[nH]2)c1` [Example 216, 5-(2,3,6-trifluorobenzyl)-N-(4-(5-((4-hydroxy-4-methylpentyl)oxy)-2-methylphenyl)pyridin-2-yl)-4H-1,2,4-triazole-3-carboxamide] cannot be ordered by IC50: 100 to 1000 nM for the first, at most 100 nM for the second.

First: CC(C)(O)CCCOc1ccc(Cl)c(-c2ccnc(NC(=O)c3nnc([C@H](O)c4ccccc4)[nH]3)c2)c1 [Example 477, (R)-N-(4-(2-chloro-5-((4-hydroxy-4-methylpentyl)oxy)phenyl)pyridin-2-yl)-5-(hydroxyl(phenyl)methyl)-4H-1,2,4-triazole-3-carboxamide]
Second: Cc1ccc(NC(=O)CCC(C)(C)O)cc1-c1ccnc(NC(=O)c2nnc(Cc3ccccc3)[nH]2)c1 [Example 489, 5-benzyl-N-(4-(5-(4-hydroxy-4-methylvaleramido)-2-methylphenyl)pyridin-2-yl)-4H-1,2,4-triazole-3-carboxamide]
The IC50 of the first is higher: 1000 to 10000 nM for the first, 100 to 1000 nM for the second.

`CC(=O)c1ccc(-c2ccnc(NC(=O)c3nnc(Cc4ccccc4)[nH]3)c2)c(C)c1` [Example 162, N-(4-(4-acetyl-2-methylphenyl)pyridin-2-yl)-5-benzyl-4H-1,2,4-triazole-3-carboxamide] and `Cc1ccc(OCCCCC(C)(C)O)cc1-c1cc(NC(=O)c2nnc(Cc3ccccc3F)[nH]2)ncc1Cl` [Example 247, N-(5-chloro-4-(5-((5-hydroxyl-5-methylhexyl)oxy)-2-methylphenyl)pyridin-2-yl)-5-(2-fluorobenzyl)-4H-1,2,4-triazole-3-carboxamide] fall in the same range of IC50: 100 to 1000 nM for the first, 100 to 1000 nM for the second.
